Where two headings read alike, the source gives them in different places.
Columns and labels:
[1] = molecular target: T1, uracil-DNA glycosylase (UDG) (Escherichia coli, UniProt P12295); assay: TRES G-quadruplex/iridium probe UDG activity assay with commercial UDG; also fluorescence thermal shift (ca. […] °C); format: biochemical
T1 construct: gene ung

[2] = molecular target: T2, uracil-DNA glycosylase (UDG) (Mus musculus, UniProt P97931); assay: CETSA in RM-1 cell lysates; format: cell-based
T2 construct: gene Ung; endogenous UDG in RM-1 cell lysates
T2 sequence (P97931 whole entry): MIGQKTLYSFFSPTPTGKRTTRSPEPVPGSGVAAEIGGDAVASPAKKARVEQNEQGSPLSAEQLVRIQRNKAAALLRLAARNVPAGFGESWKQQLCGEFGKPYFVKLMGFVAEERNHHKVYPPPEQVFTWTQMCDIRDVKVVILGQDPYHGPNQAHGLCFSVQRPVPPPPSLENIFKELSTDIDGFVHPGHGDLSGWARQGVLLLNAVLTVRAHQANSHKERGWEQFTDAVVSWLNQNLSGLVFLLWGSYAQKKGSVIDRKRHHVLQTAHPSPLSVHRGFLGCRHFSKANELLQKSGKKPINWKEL

[3] = molecular target: T1, uracil-DNA glycosylase (UDG); assay: TRES G-quadruplex/iridium probe UDG activity assay with commercial UDG; also fluorescence thermal shift (ca. […] °C); format: biochemical; remark: listed apart in the source

T1 sequence (P12295 2-229): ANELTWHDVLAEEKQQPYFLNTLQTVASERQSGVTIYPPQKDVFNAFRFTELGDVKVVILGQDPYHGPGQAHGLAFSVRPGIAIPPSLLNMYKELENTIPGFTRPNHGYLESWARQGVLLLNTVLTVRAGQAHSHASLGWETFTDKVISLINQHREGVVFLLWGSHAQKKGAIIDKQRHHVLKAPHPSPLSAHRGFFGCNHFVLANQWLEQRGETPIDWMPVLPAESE

Compound	IC50 [1] [µM]	CETSA in RM-1 cell lysates [2]	IC50 [3] [µM]
O=[N+]([O-])c1ccc(S(=O)(=O)N2/C(=C\c3ccccc3)C(O)(c3ccccc3)c3ccccc32)cc1 (stereo not drawn) [A8]	1.9		
O=C(N/N=C/c1ccc([N+](=O)[O-])o1)c1ccc(O)cc1 [S13, nifuroxazide]		in the presence of compound A8 and S13, indicating that both of them directly engaged and stabilized UDG	~4

— publication PMC8148385, “A robust photoluminescence screening assay identifies uracil-DNA glycosylase inhibitors against prostate cancer” (Chemical Science, 2020)
